Data on 63 compounds can be found in ChEMBL document CHEMBL1201862, “PubChem BioAssay data set” (2004).

Activity calls are given as the source filed them. Rule as the data show it, for most assays here: actives have a measured EC50 and inactives only a lower limit.

One assay has as its target Cytochrome P450 2C9 (Homo sapiens, UniProt P11712).
Assay [1] can be described thus: Trypanosoma cruzi growth suppression in host cells – NIH3T3 host cells, beta-gal luminescence, confirmation (AID 2044).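 Also: intracellular parasites grown in NIH/3T3 mouse fibroblasts as host cells; luminescent beta-galactosidase reporter signal from transgenic T. cruzi replicating inside host cells; inhibitors lower the luminescence signal.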 The assay is classed as functional, cell-based.
A short description of assay [2]: NIH3T3 cell viability loss – ATP luminescence, mouse fibroblasts, counter-screen, dose response (AID 2010).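 Also: cells exposed to compound for about 90 hours before reading.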 The assay is classed as functional, cell-based.
In the next assay the target is Cytochrome P450 3A4 (Homo sapiens, UniProt P08684).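 Also: CYP3A4 tested as one member of a cytochrome P450 panel screen.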
Chain of Cytochrome P450 3A4 (P08684 whole entry): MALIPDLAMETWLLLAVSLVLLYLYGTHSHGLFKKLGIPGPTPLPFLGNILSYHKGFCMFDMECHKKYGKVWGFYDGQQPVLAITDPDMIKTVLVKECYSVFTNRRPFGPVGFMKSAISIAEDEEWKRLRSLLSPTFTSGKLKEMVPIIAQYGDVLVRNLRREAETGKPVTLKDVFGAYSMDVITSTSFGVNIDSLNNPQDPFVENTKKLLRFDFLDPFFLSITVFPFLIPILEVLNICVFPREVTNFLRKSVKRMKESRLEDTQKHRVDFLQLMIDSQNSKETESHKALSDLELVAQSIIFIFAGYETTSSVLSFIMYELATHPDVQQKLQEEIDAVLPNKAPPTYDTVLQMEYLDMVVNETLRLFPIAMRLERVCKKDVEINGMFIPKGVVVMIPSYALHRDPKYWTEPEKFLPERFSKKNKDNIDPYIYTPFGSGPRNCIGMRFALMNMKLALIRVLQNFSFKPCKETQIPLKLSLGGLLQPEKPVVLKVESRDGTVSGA
The subject of assay [3] is Streptococcus sp. 'group A'. The assay is described as follows: Streptococcus pyogenes SK(-)GAS viability under kanamycin – luminescence, BacTiterGlo, confirmation, counter-screen for streptokinase expression inhibitor project, dose response (AID 1900). The class given is functional, organism-based.
A further assay concerns Streptococcus. The assay is described as follows: GAS UMAA2166 growth inhibition – luminescence, BacTiterGlo, counter-screen for streptokinase expression inhibitor project, dose response (AID 1915).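 Also: potency for reduction of bacterial viability or growth.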 The class given is functional, organism-based.

Chain of Cytochrome P450 2C9 (P11712 whole entry): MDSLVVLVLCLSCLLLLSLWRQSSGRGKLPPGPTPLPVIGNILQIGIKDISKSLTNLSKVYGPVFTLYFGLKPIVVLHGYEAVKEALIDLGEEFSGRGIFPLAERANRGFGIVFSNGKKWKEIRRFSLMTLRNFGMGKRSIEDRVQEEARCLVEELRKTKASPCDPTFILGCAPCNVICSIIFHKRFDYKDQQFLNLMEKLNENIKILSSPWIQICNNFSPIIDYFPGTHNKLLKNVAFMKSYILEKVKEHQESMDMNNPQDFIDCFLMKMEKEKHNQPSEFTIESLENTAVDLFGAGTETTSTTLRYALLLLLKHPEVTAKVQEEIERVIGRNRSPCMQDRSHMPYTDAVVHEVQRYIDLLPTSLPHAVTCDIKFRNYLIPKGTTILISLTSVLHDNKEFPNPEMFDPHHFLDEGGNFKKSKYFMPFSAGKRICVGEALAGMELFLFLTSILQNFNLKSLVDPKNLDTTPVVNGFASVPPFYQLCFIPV

As for `Cc1nc2ccccn2c1C(=O)C1=C(O)C(=O)N(CCCn2ccnc2)C1c1ccncc1` (centres undefined), the AC50 on Cytochrome P450 2C9 is 11.2 µM (inconclusive). With `O=C(COc1ccccc1)NC(=S)Nc1ccc2c(c1)Cc1ccccc1-2`, the EC50 in assay [1] was 0.641 µM (active); in assay [2] it was > 60 µM (not active). Regarding `COC(=O)c1ccc(C2Nc3cccc4cccc(c34)N2)cc1`, the EC50 is 6.1 µM (active) in assay [1] and > 60 µM (not active) in assay [2]. Turning to `CC(=O)N1CCc2cc(Br)cc(S(=O)(=O)N3CCN(C(=O)c4ccco4)CC3)c21`, on Cytochrome P450 3A4, the concentration at half-maximal activity (AC50) was 15.8 µM (inconclusive).

`COC(=O)N1CCC2(CCCN(c3ccc(-c4ccccc4)cc3)C2)CC1`: the AC50 on Cytochrome P450 3A4 is 39.8 µM (inconclusive). On to `Fc1ccc(C2=Nn3c(Cc4ccccc4F)nnc3SC2)cc1`, for which the AC50 was 2 µM (inconclusive) at Cytochrome P450 2C9 and 12.6 µM (inconclusive) at Cytochrome P450 3A4.

With `CCC(c1nnnn1CS(=O)(=O)c1ccc(C)cc1)N1CCN(c2nc3ccccc3s2)CC1` (centres undefined), the EC50 in assay [1] was 0.861 µM (active); in assay [2], > 30 µM (not active). With `COc1ccc(/C=C/C(=O)NC(=S)NNC(=O)c2cc(OC)c(OC)c(OC)c2)cc1`, the results for the half-maximal effective concentration (EC50) (in assay [3]; in the assay on Streptococcus) were 1.38 µM (active) and 3.48 µM (active), respectively. For `Cn1c(=O)c2c(nc(N3CCN(c4ccccn4)CC3)n2Cc2ccccc2Cl)n(C)c1=O`, the AC50 on Cytochrome P450 3A4 was 1.26 µM (inconclusive).

Consider `COc1ccc(N2CCN(C(=O)c3ccc(Cn4c(=S)[nH]c5ccc(N6CCOCC6)cc5c4=O)cc3)CC2)cc1`, for which the EC50 is 0.684 µM (active) in assay [1] and > 30 µM (not active) in assay [2]. For the compound `CCNc1ncc2nc(-c3ccccc3)c(=O)n(CCC#N)c2n1`, at Cytochrome P450 3A4, the AC50 was 25.1 µM (inconclusive). In the case of `COc1cccc(CN2CCN(Cc3c(C)nn(C(C)C)c3C)CC2CCO)c1` (centres undefined), the results for the EC50 in assay [1] and in assay [2] were 1.14 µM (active) and > 60 µM (not active), respectively. In the case of `O=C(c1csnn1)N1CCC2(CC1)CN(Cc1ccncc1)C2`, at Cytochrome P450 3A4, the AC50 is 15.8 µM (inconclusive). With `CN(CCc1ccccn1)Cc1ccc(Cl)cc1`, the half-maximal effective concentration (EC50) in assay [1] was 0.221 µM (active); in assay [2], > 60 µM (not active). On to `COCCNc1nc(-c2ccoc2)nc2ccccc12`, for which, on Cytochrome P450 3A4, the AC50 is 12.6 µM (inconclusive). Regarding `CCOC(=O)N(c1ccccc1)P1(=S)OCCO1`, the AC50 on Cytochrome P450 2C9 was 0.0355 µM (inconclusive). For the compound `N#CC(C(=O)OC1CCCCC1)c1nc2ccccc2nc1N1CCCCC1` (centres undefined), the EC50 was 1.01 µM (active) in assay [1] and 8.74 µM (active) in assay [2]. Consider `COc1cc(OC)c(C2C(C(=O)Nc3ccc(C)cc3C)=C(C)Nc3ncnn32)cc1OC` (centres undefined), for which the AC50 at Cytochrome P450 2C9 was 15.8 µM (inconclusive). Turning to `Cc1nc2cnc(OCc3ccccc3)nc2n(CCC#N)c1=O`, the AC50 on Cytochrome P450 3A4 is 3.98 µM (inconclusive). As for `CC(COc1cccc2ccccc12)CN1CCN(C)CC1` (centres undefined), the EC50 in assay [1] is 0.284 µM (active); in assay [2] it was > 30 µM (not active). On to `O=C(NC1CCCC1)c1cnn2c(C(F)(F)F)cc(-c3ccco3)nc12`, for which the AC50 on Cytochrome P450 2C9 is 22.4 µM (inconclusive). As for `Cc1ccc(OCCNC(=O)c2cncc(Br)c2)cc1C`, the AC50 on Cytochrome P450 2C9 was 25.1 µM (inconclusive). In the case of `CCOC(=O)CCC(=O)O[C@H]1[C@H](O[C@@H]2[C@@H](C)[C@H](O[C@H]3C[C@@](C)(OC)[C@@H](O)[C@H](C)O3)[C@@H](C)C(=O)O[C@H](CC)[C@@](C)(O)[C@H](O)[C@@H](C)C(=O)[C@H](C)C[C@@]2(C)O)O[C@H](C)C[C@@H]1N(C)C` [ERYTHROMYCIN ETHYLSUCCINATE], the EC50 (in assay [3]; in the assay on Streptococcus) was < 0.06 µM (active) throughout. Consider `O=C(c1cc(-c2cccs2)on1)N1CCN(c2ccc(F)cc2)CC1`, for which the AC50 on Cytochrome P450 3A4 was 20 µM (inconclusive).

On to `O=C(N/N=C\c1cccc(F)c1)c1ccc(Cn2cc(Br)c([N+](=O)[O-])n2)o1`, for which the EC50 in assay [1] is 0.889 µM (active); in assay [2] it was > 60 µM (not active). The corresponding values for `COc1c(C)cc(Br)cc1C(=O)Nc1ccc(Cc2ccncc2)cc1` are 2.16 µM (active) and > 60 µM (not active). On the same counts, the results for `Cc1ccc(SCCN2CCN(C)CC2)cc1` are 0.852 µM (active) and 10.3 µM (active). As to `Cc1cnc2cc(Cl)ccc2c1SCC(=O)O`, the AC50 on Cytochrome P450 3A4 was 3.98 µM (inconclusive). As to `COc1cc(S(=O)(=O)N2CCC(O)(c3cccc(C(F)(F)F)c3)CC2)ccc1-n1cnnn1`, the values for the EC50 in assay [1] and in assay [2] were 2.61 µM (active) and > 60 µM (not active), respectively. As for `CCCCCCCCCCCCCCCCCCNC(=O)OC[C@@H](COP(=O)([O-])OCC[n+]1ccsc1)OC`, the AC50 on Cytochrome P450 2C9 is 39.8 µM (inconclusive). As for `CCCCn1c(=O)c(C(=O)Nc2ccccn2)c(O)c2ccccc21`, the values for the EC50 (in assay [3]; with Streptococcus) were 3.64 µM (active) and 19.2 µM (active), respectively. As to `COc1ccc(C(=O)C2CCCN(Cc3cccc4c3OCO4)C2)cc1OC` (centres undefined), the results for the EC50 in assay [1] and in assay [2] were 0.576 µM (active) and 12.4 µM (active), respectively. The corresponding values for `CCCCn1c2ccc(F)cc2c2nnc(SCCN3CCCCC3)nc21` are 0.681 µM (active) and > 60 µM (not active). For the compound `CC(=O)c1ccc(N2CCN(C(=O)c3ccc(Cn4c(=S)[nH]c5ccc(N6CCOCC6)cc5c4=O)cc3)CC2)cc1`, the EC50 was 1.07 µM (active) in assay [1] and > 60 µM (not active) in assay [2]. On the same counts, the results for `CC(C)OC(=O)c1cn(-c2ccccc2)nc1-c1ccco1` are 1.61 µM (active) and 31.6 µM (active). Take `CC(C)NC(=O)N1CC[C@@]2(CCCN(S(=O)(=O)c3ccccc3)C2)C1`: the AC50 on Cytochrome P450 3A4 is 20 µM (inconclusive). In the case of `COc1ccccc1CNc1ncncc1-c1ccccc1C`, at Cytochrome P450 3A4, the AC50 is 0.398 µM (inconclusive). In the case of `Cc1ccc(S(=O)(=O)NCC(c2cccnc2)N2CCN(Cc3ccccc3)CC2)cc1` (centres undefined), the EC50 in assay [1] is 0.732 µM (active); in assay [2], > 60 µM (not active). On the same counts, the results for `CCO/C(O)=C/C1=NC2(CCCCC2)Cc2cc(OC)c(OC)cc21` are 2.2 µM (active) and > 60 µM (not active).

On to `O=C(NCC1CCCO1)C(c1cccs1)N(Cc1ccccc1Cl)C(=O)c1ccc(-c2ccccc2)[nH]1` (centres undefined), for which the EC50 in assay [1] is 2.96 µM (active); in assay [2], > 30 µM (not active). In the case of `Cc1oc(-c2cccc(Cl)c2)nc1CN1CCCC(C(=O)NCCCN2CCOCC2)C1` (centres undefined), the results for the EC50 in assay [1] and in assay [2] were 0.234 µM (active) and > 60 µM (not active), respectively. On the same counts, the results for `O=C1C2C(c3ccccc3)CC=CC2[C@H](c2cccc([N+](=O)[O-])c2)N1Cc1ccccc1` (some centres undefined) are 2.17 µM (active) and > 60 µM (not active). Consider `O=C1CC(SC(=Nc2ccccc2)Nc2ccccc2)C(=O)N1c1ccc(Cl)c(Cl)c1` (centres undefined), for which the EC50 is 2.06 µM (active) in assay [1] and > 60 µM (inconclusive) in assay [2]. Regarding `Nc1c(S(=O)(=O)O)cc(Nc2cccc(S(N)(=O)=O)c2)c2c1C(=O)c1ccccc1C2=O`, the AC50 at Cytochrome P450 3A4 was 7.94 µM (inconclusive). Take `C=CCNCCOCCOc1ccc(C)cc1Br`: the values for the EC50 in assay [1] and in assay [2] were 3.36 µM (active) and > 60 µM (not active), respectively. The corresponding values for `CCN(CC)CCN(C(=O)c1ccc2c(c1)CCCC2)c1nc2ccc(F)cc2s1` are 0.818 µM (active) and > 60 µM (not active).

In the case of `CN1/C(=C/c2cccc[n+]2C)Sc2ccccc21`, the EC50 in assay [1] is 0.185 µM (active); in assay [2] it was > 60 µM (not active).

On to `CCNc1nc(Sc2ccc(C)cc2)cc(C(F)(F)F)n1`, for which, at Cytochrome P450 3A4, the AC50 is 22.4 µM (inconclusive).

For `CSc1cc2c(cc1C(F)(F)F)N(C(=O)Nc1cccnc1)CC2`, the half-maximal activity concentration (AC50) on Cytochrome P450 3A4 was 3.98 µM (inconclusive). On to `Cc1nn(Cc2ccc(F)cc2)c(Cl)c1/C=N/NC(=O)c1ccccc1`, for which the EC50 in assay [1] was 2.67 µM (active); in assay [2], > 60 µM (not active). The corresponding values for `CCN(CC)P(=O)(Nc1ccccc1Br)c1ccc(N(C)C)cc1NC(=O)c1ccco1` (centres undefined) are 1.95 µM (active) and > 60 µM (not active). Consider `C=CCOc1c(Br)cc(CNCCCN2CCOCC2)cc1OC`, for which the EC50 in assay [1] was 0.521 µM (active); in assay [2] it was 22.9 µM (active).

For `C[N+](C)(CCCCCC[N+](C)(C)CCCN1C(=O)c2cccc3cccc(c23)C1=O)CCCN1C(=O)c2cccc3cccc(c23)C1=O`, at Cytochrome P450 3A4, the AC50 was 2.51 µM (inconclusive). The same measure, in the same setting: the same measure for `COc1ccc(-n2c(=O)c(CCc3ccccc3)nc3cnc(N4CCN(C)CC4)nc32)cc1`: 12.6 µM (inconclusive). For `CCOc1ccc(-c2nnc3n2N=C(c2ccc(OC)cc2)CS3)cc1`, at Cytochrome P450 2C9, the AC50 was 2.51 µM (inconclusive). Consider `Cc1nn(CC(N)=O)c(=O)c2ccccc12`, for which the EC50 in assay [1] is 0.903 µM (active); in assay [2] it was > 30 µM (not active). Regarding `CC[C@H](Cc1c(I)cc(I)c(N)c1I)C(=O)O`, the AC50 at Cytochrome P450 2C9 was 6.31 µM (inconclusive). As for `Fc1ccccc1Cc1noc(CN2CCN(C/C=C/c3ccccc3)CC2)n1`, the values for the EC50 in assay [1] and in assay [2] were 0.443 µM (active) and > 60 µM (inconclusive), respectively.

Take `CCOc1ccc(C(CC(=O)O)NC(=O)COc2ccccc2)cc1` (centres undefined): the AC50 at Cytochrome P450 2C9 is 39.8 µM (inconclusive). With `O=C(Nc1nc(-c2ccc(F)cc2)cs1)C1CCN(C(=O)c2ccc(F)cc2)CC1`, the results for the EC50 in assay [1] and in assay [2] were 4.57 µM (active) and > 60 µM (not active), respectively. On to `Cc1cnc(CNc2ccnc(-c3ccc(N(C)C)cc3)n2)cn1`, for which, on Cytochrome P450 3A4, the AC50 is 10 µM (inconclusive). As to `CC(C)c1cccc(OCCCCN(C)C)c1`, the EC50 in assay [1] was 0.587 µM (active); in assay [2], > 60 µM (not active). In the case of `O=c1c(-c2ccc(F)c(F)c2)nc2cncnc2n1Cc1ccccc1Cl`, the AC50 at Cytochrome P450 3A4 is 12.6 µM (inconclusive).
